The record followed here is paper PMC12064818, “A general assay platform to study protein pharmacology using ligand-dependent structural dynamics” (Nature Communications, 2025).

For the assay, the target named is T1, FLuc-C-HiBiT (Photinus pyralis, UniProt P08659).
T1 construct: firefly luciferase with C-terminal HiBiT tag, E. coli expressed
The assay can be described thus: biochemical. Particulars: enzyme activity, 10 uM ATP; read-out: IC50 or SDR50 (mM) / FLuc E.

Where only a bound is given, the exact number is not on record here.

T1 sequence (P08659 whole entry, looked up): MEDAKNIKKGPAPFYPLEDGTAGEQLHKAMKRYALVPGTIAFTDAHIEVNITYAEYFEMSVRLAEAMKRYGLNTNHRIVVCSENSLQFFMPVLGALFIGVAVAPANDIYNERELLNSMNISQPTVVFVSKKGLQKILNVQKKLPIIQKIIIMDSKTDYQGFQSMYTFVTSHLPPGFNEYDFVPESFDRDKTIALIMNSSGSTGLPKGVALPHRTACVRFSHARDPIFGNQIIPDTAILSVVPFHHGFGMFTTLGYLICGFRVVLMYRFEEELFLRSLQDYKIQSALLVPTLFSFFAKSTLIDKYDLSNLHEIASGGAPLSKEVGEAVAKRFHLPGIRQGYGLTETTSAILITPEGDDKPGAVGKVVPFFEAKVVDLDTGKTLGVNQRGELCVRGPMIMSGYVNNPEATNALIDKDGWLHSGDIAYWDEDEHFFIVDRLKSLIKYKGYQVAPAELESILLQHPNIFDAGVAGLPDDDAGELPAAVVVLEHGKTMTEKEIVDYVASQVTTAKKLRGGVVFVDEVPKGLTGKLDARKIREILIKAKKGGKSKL

On to `CNC(=O)c1cccc(-c2cnc(NC(=O)c3ccncc3)c3c2CCO3)c1` [NCGC00412795-01], for which the IC50 is 20.2 µM.
`CCOc1ccc(-c2cc3c(=O)n(CCNC(=O)c4cccc(C#N)c4)ccn3n2)cc1` [NCGC00456938-01]: the IC50 amounted to 0.7 µM.
With `Cc1ccccc1-c1noc(-c2ccc(N3CCCC3)c([N+](=O)[O-])c2)n1` [NCGC00119417-01], the IC50 amounted to 11.1 µM.
On to `COc1ccc(-c2cc3c(cn2)CN(Cc2cccnc2)CCN3)cc1OC` [NCGC00411110-01], for which the IC50 was determined as 14.3 µM.
As for `Cc1ccc2nc(-c3ccc(NC(=O)c4ccccc4S(C)(=O)=O)cc3)sc2c1` [NCGC00141658-01], the figure is 11.1 µM; as for `CC1(NC(=O)C2CC2)CN(Cc2nc(-c3cccc(F)c3)cs2)C1` [NCGC00410350-01], 20.2 µM.
As to `O=C(O)c1ccc(-c2noc(-c3cccc(F)c3)n2)cc1` [NCGC00168097-02], the IC50 stood at 4.95 µM.
`Cc1ccc(-c2cc3c(=O)n(CCNC(=O)c4nn(C)c5ccccc45)ccn3n2)c(C)c1` [NCGC00456971-01]: the IC50 is 1.57 µM.
For `Cc1ncccc1C(=O)N1CCC(Oc2ccc(-c3noc(-c4ccccc4)n3)cc2)C1` (stereo not drawn) [NCGC00440997-01], the IC50 worked out at 11.1 µM.
Turning to `COc1ccc(Nc2nc(-c3ccccc3F)no2)cc1OC` [NCGC00422302-01], the IC50 turned out to be 3.51 µM.
`CCN1c2cc(C(=O)Nc3ccc4c(c3)OCCO4)ccc2C(=O)N2CCCC21` (stereo not drawn) [NCGC00452150-01]: the IC50 was determined as 11.1 µM.
Regarding `Cc1ccc(C2=Nc3cc(Cl)ccc3NC(c3ccccc3)=N2)cc1` [NCGC00116648-01], the IC50 was above 30 µM.
The same measure for `Nc1nc(=O)c2[nH]c(=O)n(C3OC(CO)C(O)C3O)c2[nH]1` (stereo not drawn) [NCGC00390457-01]: above 30 µM; for `CC1CCCN(c2ncnc3c2cnn3-c2ccc(F)cc2)C1` (stereo not drawn) [NCGC00139051-01]: 0.7 µM.
In the case of `CC(C)(C)CN1CCNc2cc(Nc3ccccc3)ncc2C1` [NCGC00411260-01], the IC50 is 7.18 µM.
As for `CCCn1ncc(-c2nc(-c3ccncc3)no2)c1C` [NCGC00445972-01], the IC50 is 8.81 µM.
Regarding `COc1cccc(-n2cnc3c(N/N=C/c4ccncc4)ncnc32)c1` [NCGC00242129-02], the IC50 was determined as 17.6 µM.
As for `CCOc1cccc(NC(=O)CSc2ncc(-c3ccccc3)[nH]2)c1` [NCGC00106968-01], the figure is above 30 µM; as for `O[C@H]1C[C@@H](c2cc(N3CCc4c(Cl)cccc4C3)ncn2)C1` [NCGC00424922-01], 9.89 µM; as for `O=C(COc1ccc(Cl)cc1)Nc1ccc(-c2nc3ccccc3s2)c(O)c1` [NCGC00098783-01], above 30 µM.
`CC[n+]1c(/C=C/N(C)c2ccccc2)n(-c2ccccc2)c2ccc(-c3nc4ccccc4s3)cc21` [NCGC00165744-02]: the IC50 was found to be 17.6 µM.
Regarding `COc1cccc(Nc2ncc(-c3cccnc3)c3c2OCC3)c1` [NCGC00412731-01], the IC50 was 18 µM.
As to `COc1ccc(C(=O)Nc2noc3ccccc23)cc1` [NCGC00115156-01], the IC50 stood at 0.881 µM.
Take `Cc1ccc(-c2cccc(COc3cnc4c(ccn4CC(=O)O)c3)c2)cc1` [NCGC00418171-01]: the IC50 was determined as 8.05 µM.
Consider `Cc1cccc(-n2ncc3c(N4CCCCCC4)ncnc32)c1` [NCGC00139171-01], for which the IC50 was 0.881 µM.
With `COc1ccc(C(=O)NCC2Cc3cc(C)cc(-c4nc5ccccc5s4)c3O2)c(OC)c1OC` (stereo not drawn) [NCGC00240387-01], the IC50 was above 30 µM.
With `CCNC(=O)N[C@@H]1C=C[C@@H](c2c(C)nn(-c3ccc(C(C)C)cc3)c2C)C1` [NCGC00399948-01], the IC50 stood at 2.86 µM.
Turning to `O=C(COC(=O)c1cc(-c2cccs2)nc2ccccc12)c1ccc(Br)cc1` [NCGC00100768-01], the IC50 was above 30 µM.
Take `O=C(O)c1ccc(-c2noc(-c3ccccc3F)n2)cc1` [NCGC00168096-02]: the IC50 is 0.197 µM.
Consider `CCOc1ccc(-c2cc(CCCC(=O)NCCc3ccc(OC)c(OC)c3)no2)cc1` [NCGC00110832-01], for which the IC50 worked out at 9.89 µM.
The same measure for `CCOc1cccc(-c2nc(C3CCOC3)no2)c1` (stereo not drawn) [NCGC00445015-01]: above 30 µM; for `CCCCC(=O)Nc1cc(-c2nc3ccccc3s2)ccc1C` [NCGC00596082-01]: above 30 µM.
On to `COc1ccccc1C(=O)NCCn1ccn2nc(-c3ccc(C)cc3C)cc2c1=O` [NCGC00456987-01], for which the IC50 was determined as 9.89 µM.
The same measure for `CSc1ccc(-c2ccc3c(c2)C(=O)N2CC[C@H](NC(=O)c4cccs4)[C@H]2C(=O)N3)cc1` [NCGC00393756-01]: 12.4 µM; for `Cc1ccc2nc(-c3ccc(NC(=O)CSc4nnc(C)s4)cc3)sc2c1` [NCGC00598135-01]: 0.624 µM; for `Cc1cc(-c2cc3c(cn2)CN(Cc2ccccc2O)CCN3)ccn1` [NCGC00411040-01]: 18 µM.
`O=C(Nc1nn(-c2cccc(F)c2)c2cccc(N3CCOCC3)c12)C1CCC1` [NCGC00440498-01]: the IC50 came to 11.1 µM.
With `Oc1cc(-c2nc3ccccc3s2)cc2c1OCCN(Cc1cccn1-c1nccs1)C2` [NCGC00238878-01], the IC50 is above 30 µM.
The same measure for `O=C(Nc1ccccc1)c1nc2c(o1)CCN(Cc1cccc(Cl)c1)CC2` [NCGC00413390-01]: 10.1 µM; for `Cc1ccc(C(=O)O)cc1Nc1nc2ccccc2n2nnnc12` [NCGC00106886-01]: 12.4 µM; for `C=C1[C@H](CO)[C@@H](O)C[C@@H]1n1cnc2c(=O)[nH]c(N)nc21` [NCGC00164563-11]: above 30 µM.
For `Cc1ccc2nc(-c3ccc(NC(=O)COc4ccc(Br)cc4Br)cc3)sc2c1` [NCGC00098202-02], the IC50 was 3.51 µM.
As for `COCCN1CCNc2cc(-c3cccc(N(C)C)c3)ncc2C1` [NCGC00411224-01], the IC50 worked out at 16.1 µM.
As to `Cc1ccc(-n2ncc3c(NC4CCCCC4)ncnc32)cc1Cl` [NCGC00139149-01], the IC50 was determined as 2.79 µM.
On to `COc1cccc(Nc2cc3c(cn2)CN(C(C)=O)CCN3)c1` [NCGC00411096-01], for which the IC50 is 9.04 µM.
The same measure for `Cn1ccnc1CN1C(=O)CO[C@H](c2ccc(NC(=O)Nc3ccccc3)cc2)[C@H]1CO` [NCGC00396650-01]: 14 µM; for `NC(=O)C1CCN(c2ncnc3c2cnn3-c2ccccc2)CC1` [NCGC00141852-02]: above 30 µM; for `CC(C)C(=O)NC1CCN(Cc2ccc(-c3nc4cccc(Cl)c4s3)cc2)CC1` [NCGC00632240-01]: above 30 µM.
As for `CC(C)(C)C(=O)Nc1ccc(-c2nc3ccccc3s2)cc1` [NCGC00118992-01], the figure is 0.0197 µM.
`C[C@H](C(=O)NCCN1CCOCC1)C1CC[C@@]2(C)Cc3sc(CSc4ccccc4)nc3[C@@H](C)[C@@H]2[C@H]1O` (stereo partly drawn) [NCGC00398276-01]: the IC50 is 12.4 µM.
As for `Cc1ccc(-n2ncc3c(N4CCC(C(N)=O)CC4)ncnc32)cc1` [NCGC00139056-01], the figure is 12.4 µM; as for `Cc1cn2c(=O)cc(COC(=O)c3ccccc3F)nc2s1` [NCGC00129878-01], 6.24 µM.
As for `COc1cccc(Nc2cc3c(cn2)CN(C)CCN3)c1` [NCGC00411064-01], the figure is 22.6 µM; as for `COc1ccc2c(C)c(-c3nc(C4CCOC4)no3)oc2c1` (stereo not drawn) [NCGC00443479-01], above 30 µM.
The same measure for `CCc1ccc2oc(-c3cccc(NC(=O)c4cc5ccccc5o4)c3)nc2c1` [NCGC00098909-01]: 12.4 µM; for `O=C(C1CCC1)N1c2ccccc2CC1c1noc(C2CCOCC2)n1` (stereo not drawn) [NCGC00471502-01]: 9.89 µM.
On to `CSCc1nc(-c2ccncc2)nn1Cc1ccc2c(c1)OCO2` [NCGC00447092-01], for which the IC50 was above 30 µM.
Consider `COc1ccccc1OCc1nc2ccccc2n1Cc1ccccc1` [NCGC00141136-01], for which the IC50 was found to be 14 µM.
In the case of `CC(=O)c1ccc(N[S+](=O)([O-])c2cccc([S+](=O)([O-])c3ccc(Cl)cc3)c2)cc1` [NCGC00098154-01], the IC50 is above 30 µM.
As for `CN(Cc1cnn(C)c1)C(=O)c1csc2nc(-c3ccc(C(F)(F)F)cc3)cn12` [NCGC00425000-01], the figure is 4.42 µM; as for `O=C(N[C@H]1CCN2C(=O)c3cc(/C=C/c4ccc(O)cc4)ccc3NC(=O)[C@H]12)c1cnccn1` [NCGC00421527-01], above 30 µM.
`Clc1cccc(-n2ncc3c(N4CCCCC4)ncnc32)c1` [NCGC00139126-01]: the IC50 was 0.989 µM.
`Cc1cc(-c2nc3cc(F)ccc3s2)ccc1NC(=O)[C@@H](N)CCCCN` [NCGC00379246-02]: the IC50 was 2.48 µM.
As for `C[S+](=O)([O-])CCn1ncc2cc(OCc3cccc(-c4ccccc4O)c3)ccc21` [NCGC00418051-01], the IC50 is 14.3 µM.
For `CC(=O)N1CCNc2cc(-c3ccccc3F)ncc2C1` [NCGC00411070-01], the IC50 amounted to 28.5 µM.
Take `COc1ccc(C)cc1NC(=O)Nc1cccc(-c2ccc(N3CCCCC3)nn2)c1` [NCGC00427638-01]: the IC50 turned out to be 1.11 µM.
Consider `COc1ccc(C(=O)N2CCCC(c3nc(-c4ccccc4)no3)CCNC(=O)CC2)c(OC)n1` (stereo not drawn) [NCGC00465834-01], for which the IC50 was found to be 11.1 µM.
Take `CCOc1cccc2cc(-c3nc(-c4ccccc4C)no3)c(=O)oc12` [NCGC00123322-01]: the IC50 was determined as 3.13 µM.
As for `Cc1nn(-c2ccc(C(C)C)cc2)c(C)c1[C@@H]1C=C[C@@H](NC(=O)CC2(CC(=O)O)CCCC2)C1` [NCGC00421413-01], the figure is above 30 µM; as for `N#Cc1c(-n2ncnc2-c2cccc(Br)c2)sc2c1CCCCC2` [NCGC00099370-01], 3.13 µM.
Take `O=C1CC(c2ccccc2)N(C(=O)CNC(=O)Nc2ccc3c(c2)OCCO3)CCCCCN1` (stereo not drawn) [NCGC00465553-01]: the IC50 was found to be 17.6 µM.
As for `Cc1ccc(-c2cc(N3CCC(CNC(=O)c4ccc5[nH]cnc5c4)CC3)[nH]n2)cc1` [NCGC00437766-01], the figure is 8.81 µM.
As for `CCCc1noc(-c2nc(-c3ccccc3F)no2)n1` [NCGC00450039-01], the IC50 came to 9.89 µM.
As for `C[C@@H]1C(=O)O[C@H]2[C@H]1CC[C@@]1(C)Cc3sc(NC(=O)COCC(=O)O)nc3[C@@H](C)[C@H]21` [NCGC00391314-01], the IC50 amounted to 5.7 µM.
As to `CCOc1ccccc1NC(=O)Nc1cccc(-c2ccc(N3CCOCC3)nn2)c1` [NCGC00427574-01], the IC50 is 3.94 µM.
